Measured values taken from US20060069132A1, “Azolecarboxamide herbicides” (priority 2004, published 2006).

Legend:
barnyardgrass [1] = assay: Test B pre-/postemergence herbicide test; format: in vivo, Echinochloa crus-galli; settings: for Plant response rating (0 to 100 scale), Barnyardgrass: 0 is no effect, preemergence; for Barnyardgrass plant response rating: postemergence
Procedure, shortened: (§1)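 Herbicidal effect was judged by eye on a 0–100 scale after plants stood 13 to 15 days in the greenhouse following pre- or postemergence treatment with surfactant-containing formulations.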

Surinam grass = assay: Test B pre-/postemergence herbicide test; format: in vivo, Urochloa decumbens; settings: for Plant response rating (0 to 100 scale), Surinam Grass: 0 is no effect, 100 is complete control, preemergence
Procedure, shortened: (§2)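 Seeds were planted and treated preemergence with compounds formulated in a non-phytotoxic solvent mixture containing surfactant, while plants at the 1- to 4-leaf stage (2 to 18 cm) received postemergence sprays. Flooded paddy plants were grown to the 2-leaf stage. After 13 to 15 days in a greenhouse, injury was visually rated 0–100 against untreated controls.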

cocklebur = assay: Test B pre-/postemergence herbicide test; format: in vivo, Xanthium strumarium; settings: for Plant response rating (0 to 100 scale), Cocklebur: 0 is no effect, preemergence; for Cocklebur plant response rating: postemergence
Procedure, shortened: as §1

corn = assay: Test B pre-/postemergence herbicide test; format: in vivo, Zea mays; settings: for Plant response rating (0 to 100 scale), Corn: 0 is no effect, preemergence; for Corn plant response rating: postemergence
Procedure, shortened: as §2

large crabgrass = assay: Test B pre-/postemergence herbicide test; format: in vivo, Digitaria sanguinalis; settings: for Plant response rating (0 to 100 scale), Crabgrass, Large: 0 is no effect, preemergence; for Crabgrass, Large plant response rating: postemergence
Procedure, shortened: as §2

giant foxtail = assay: Test B pre-/postemergence herbicide test; format: in vivo, Setaria faberi; settings: for Plant response rating (0 to 100 scale), Foxtail, Giant: 0 is no effect, preemergence; for Foxtail, Giant plant response rating: postemergence
Procedure, shortened: as §2

lambsquarters = assay: Test B pre-/postemergence herbicide test; format: in vivo, Chenopodium album; settings: for Plant response rating (0 to 100 scale), Lambsquarters: 0 is no effect, 100 is complete control, preemergence
Procedure, shortened: as §2

morningglory = assay: Test B pre-/postemergence herbicide test; format: in vivo, Ipomoea coccinea; settings: for Plant response rating (0 to 100 scale), Morningglory: 0 is no effect, 100 is complete control, preemergence
Procedure, shortened: as §1

pigweed = assay: Test B pre-/postemergence herbicide test; format: in vivo, Amaranthus retroflexus; settings: for Plant response rating (0 to 100 scale), Pigweed: 0 is no effect, 100 is complete control, preemergence
Procedure, shortened: as §2

velvetleaf = assay: Test B pre-/postemergence herbicide test; format: in vivo, Abutilon theophrasti; settings: for Plant response rating (0 to 100 scale), Velvetleaf: 0 is no effect, 100 is complete control, preemergence
Procedure, shortened: as §2

blackgrass = assay: Test B postemergence herbicide test; format: in vivo, Alopecurus myosuroides; settings: postemergence
Procedure, shortened: (§3)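 Treated at 2-leaf (paddy) or 1–4-leaf, 2–18 cm (postemergence); greenhouse 13–15 d; visual score vs control, 0 none to 100 complete control; dash = not tested.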

wheat = assay: Test B postemergence herbicide test; format: in vivo, Triticum aestivum; parameters: key to Wheat plant response rating: 0 = no effect, 100 = complete control
Procedure, shortened: as §3

wild oat = assay: Test B postemergence herbicide test; format: in vivo, Avena fatua
Procedure, shortened: as §3

rice = assay: Test B flooded paddy test; format: in vivo, Oryza sativa; settings: 1000 g ai/ha, scale 0 to 100 (0 no effect, 100 complete control)
Procedure, shortened: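 Visual ratings, 0 (no effect) to 100 (complete control), made versus controls after 13–15 d greenhouse. Paddy plants treated at 2-leaf stage; postemergence plants at 1- to 4-leaf stage, 2–18 cm tall.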

[2] = tested on: small flower umbrella sedge; assay: Test B flooded paddy test; format: in vivo, Cyperus difformis; settings: 1000 g ai/ha, scale 0 to 100 (0 no effect, 100 complete control)
Procedure, shortened: as §3

ducksalad = assay: Test B flooded paddy test; format: in vivo, Heteranthera limosa; settings: 1000 g ai/ha, scale 0 to 100 (0 no effect, 100 complete control)
Procedure, shortened: as §3

barnyardgrass [3] = assay: Test B flooded paddy test; format: in vivo, Echinochloa crus-galli; settings: 1000 g ai/ha, scale 0 to 100 (0 no effect, 100 complete control)
Procedure, shortened: as §3

[4] = 125 g ai/ha, 100 is complete control
[5] = 125 g ai/ha, visual rating, scale 0 (no effect) to 100 (complete control)
[6] = 500 g ai/ha, scale 0 to 100, 0 is no effect, 100 is complete control
[7] = 125 g ai/ha, visual rating, scale 0 (no effect) to 100 (complete control), postemergence
[8] = Postemergence, 500 g ai/ha, scale 0 (no effect) to 100 (complete control)
[9] = postemergence, 31 g ai/ha, scale 0 to 100

**Q.** How did the “Plant response rating (0 to 100 scale), Barnyardgrass” value (barnyardgrass [1]; [4]) turn out when `CCNC(=O)c1ccc(F)c(NC(=O)c2nn(C(C)(C)CC)nc2CC)c1` [Compound 370] was run?
**A.** 10

**Q.** What about the “Barnyardgrass plant response rating” value (barnyardgrass [1]; [5]) of the same compound?
**A.** 0

**Q.** And the “Barnyardgrass plant response rating” value (barnyardgrass [1]; [6])?
**A.** 0

**Q.** And the “Plant response rating (0 to 100 scale), Surinam Grass” value (Surinam grass; 125 g ai/ha)?
**A.** 0

**Q.** What about the “Surinam Grass plant response rating” value (Surinam grass; [7]) of the same compound?
**A.** 10

**Q.** What about the “Surinam Grass plant response rating” value (Surinam grass; [8]) of the same compound?
**A.** 10

**Q.** And the “Plant response rating (0 to 100 scale), Cocklebur” value (cocklebur; [4])?
**A.** 0

**Q.** And the “Cocklebur plant response rating” value (cocklebur; [5])?
**A.** 0

**Q.** And the “Cocklebur plant response rating” value (cocklebur; [6])?
**A.** 0

**Q.** What about the “Plant response rating (0 to 100 scale), Corn” value (corn; [4]) of the same compound?
**A.** 0

**Q.** What about the “Corn plant response rating” value (corn; [5]) of the same compound?
**A.** 10

**Q.** And the “Corn plant response rating” value (corn; [6])?
**A.** 10

**Q.** And the “Plant response rating (0 to 100 scale), Crabgrass, Large” value (large crabgrass; [4])?
**A.** 10

**Q.** And the “Crabgrass, Large plant response rating” value (large crabgrass; [5])?
**A.** 10

**Q.** And the “Crabgrass, Large plant response rating” value (large crabgrass; [6])?
**A.** 10

**Q.** And the “Plant response rating (0 to 100 scale), Foxtail, Giant” value (giant foxtail; [4])?
**A.** 0

**Q.** What about the “Foxtail, Giant plant response rating” value (giant foxtail; [5]) of the same compound?
**A.** 0

**Q.** And the “Foxtail, Giant plant response rating” value (giant foxtail; [6])?
**A.** 20

**Q.** What about the “Plant response rating (0 to 100 scale), Lambsquarters” value (lambsquarters; 125 g ai/ha) of the same compound?
**A.** 80

**Q.** And the “Lambsquarters plant response rating” value (lambsquarters; [7])?
**A.** 0

**Q.** And the “Lambsquarters plant response rating” value (lambsquarters; [8])?
**A.** 20

**Q.** And the “Plant response rating (0 to 100 scale), Morningglory” value (morningglory; 125 g ai/ha)?
**A.** 0

**Q.** And the “Morningglory plant response rating” value (morningglory; [7])?
**A.** 10

**Q.** And the “Morningglory plant response rating” value (morningglory; [8])?
**A.** 20

**Q.** And the “Plant response rating (0 to 100 scale), Pigweed” value (pigweed; 125 g ai/ha)?
**A.** 40

**Q.** And the “Pigweed plant response rating” value (pigweed; [7])?
**A.** 0

**Q.** And the “Pigweed plant response rating” value (pigweed; [8])?
**A.** 30

**Q.** What about the “Plant response rating (0 to 100 scale), Velvetleaf” value (velvetleaf; 125 g ai/ha) of the same compound?
**A.** 0

**Q.** What about the “Velvetleaf plant response rating” value (velvetleaf; [7]) of the same compound?
**A.** 10

**Q.** What about the “Velvetleaf plant response rating” value (velvetleaf; [8]) of the same compound?
**A.** 20

**Q.** And the “Blackgrass plant response rating” value (blackgrass; [5])?
**A.** 0

**Q.** And the “Blackgrass plant response rating” value (blackgrass; [6])?
**A.** 10

**Q.** What about the “Wheat plant response rating” value (wheat; [7]) of the same compound?
**A.** 0

**Q.** And the “Wheat plant response rating” value (wheat; 500 g ai/ha, scale 0 to 100, 0 no effect, 100 complete control, preemergence)?
**A.** 0

**Q.** And the “Wheat plant response rating” value (wheat; [8])?
**A.** 0

**Q.** What about the “Oat, Wild plant response rating” value (wild oat; [7]) of the same compound?
**A.** 0

**Q.** And the “Oat, Wild plant response rating” value (wild oat; [8])?
**A.** 0

**Q.** And the “Rice plant response rating” value (rice)?
**A.** 30

**Q.** What about the “Sedge, Umbrella plant response rating” value [2] of the same compound?
**A.** 40

**Q.** And the “Ducksalad plant response rating” value (ducksalad)?
**A.** 60

**Q.** What about the “Barnyardgrass plant response rating” value (barnyardgrass [3]) of the same compound?
**A.** 0

**Q.** Which results are given for `CCOC(=O)c1ccc(F)c(NC(=S)c2cc(C(C)(C)C)nn2CC)c1` [Compound 346]?
**A.** Plant response rating (0 to 100 scale), Barnyardgrass (barnyardgrass [1]; [4]): 0; Barnyardgrass plant response rating (barnyardgrass [1]; [5]): 20; Barnyardgrass plant response rating (barnyardgrass [1]; 31 g ai/ha, scale 0 to 100): 0; Plant response rating (0 to 100 scale), Surinam Grass (Surinam grass; 125 g ai/ha): 10; Surinam Grass plant response rating (Surinam grass; [7]): 10; Surinam Grass plant response rating (Surinam grass; [9]): 0; Plant response rating (0 to 100 scale), Cocklebur (cocklebur; [4]): 0; Cocklebur plant response rating (cocklebur; [5]): 30; Cocklebur plant response rating (cocklebur; 31 g ai/ha, scale 0 to 100): 10; Plant response rating (0 to 100 scale), Corn (corn; [4]): 0; Corn plant response rating (corn; [5]): 0; Corn plant response rating (corn; 31 g ai/ha, scale 0 to 100): 0; Plant response rating (0 to 100 scale), Crabgrass, Large (large crabgrass; [4]): 60; Crabgrass, Large plant response rating (large crabgrass; [5]): 0; Crabgrass, Large plant response rating (large crabgrass; 31 g ai/ha, scale 0 to 100): 0; Plant response rating (0 to 100 scale), Foxtail, Giant (giant foxtail; [4]): 50; Foxtail, Giant plant response rating (giant foxtail; [5]): 20; Foxtail, Giant plant response rating (giant foxtail; 31 g ai/ha, scale 0 to 100): 0; Plant response rating (0 to 100 scale), Lambsquarters (lambsquarters; 125 g ai/ha): 0; Lambsquarters plant response rating (lambsquarters; [7]): 30; Lambsquarters plant response rating (lambsquarters; [9]): 0; Plant response rating (0 to 100 scale), Morningglory (morningglory; 125 g ai/ha): 0; Morningglory plant response rating (morningglory; [7]): 10; Morningglory plant response rating (morningglory; [9]): 0; Plant response rating (0 to 100 scale), Pigweed (pigweed; 125 g ai/ha): 0; Pigweed plant response rating (pigweed; [7]): 70; Pigweed plant response rating (pigweed; [9]): 60; Plant response rating (0 to 100 scale), Velvetleaf (velvetleaf; 125 g ai/ha): 0; Velvetleaf plant response rating (velvetleaf; [7]): 10; Velvetleaf plant response rating (velvetleaf; [9]): 0; Blackgrass plant response rating (blackgrass; [5]): 40; Blackgrass plant response rating (blackgrass; 31 g ai/ha, scale 0 to 100): 30; Wheat plant response rating (wheat; [7]): 20; Wheat plant response rating (wheat; [9]): 10; Oat, Wild plant response rating (wild oat; [7]): 40; Oat, Wild plant response rating (wild oat; [9]): 30; Rice plant response rating (rice): 40; Sedge, Umbrella plant response rating [2]: 80; Ducksalad plant response rating (ducksalad): 60; Barnyardgrass plant response rating (barnyardgrass [3]): 40
